The record followed here is the OligoGym collection.

Only the 19 paired bases of each siRNA are shown; overhangs and chemistry are not given here.
Further: test concentration or dose not given here.

The target in one data set is PPIB. Description: five studies, different assays. As to conditions: siRNA.
Take “sense CCUUAGCUACAGGAGAGAA / antisense UUCUCUCCUGUAGCUAAGG”: the target inhibition worked out at 77.2%. On to “sense CAAGGACUUCAUGAUCCAG / antisense CUGGAUCAUGAAGUCCUUG”, for which the target inhibition worked out at 74.4%. Still for that read-out and setting: the same measure for “sense AGACUUCACCAGGGGAGAU / antisense AUCUCCCCUGGUGAAGUCU”: 87.6%. Same read-out and setting: as for “sense AAUUUUGUGGCCUUAGCUA / antisense UAGCUAAGGCCACAAAAUU”, the figure is 81.3%. Still for that read-out and setting: the same measure for “sense CCAGGGGAGAUGGCACAGG / antisense CCUGUGCCAUCUCCCCUGG”: 21.4%; for “sense AGGAGAGAAAGGAUUUGGC / antisense GCCAAAUCCUUUCUCUCCU”: 88.4%; for “sense AACUUCAAACUGAAGCACU / antisense AGUGCUUCAGUUUGAAGUU”: 69.2%. With “sense AGCAAAUUCCAUCGUGUAA / antisense UUACACGAUGGAAUUUGCU”, the target inhibition worked out at 86.4%.

With “sense UUCCCCGAUGAGAACUUCA / antisense UGAAGUUCUCAUCGGGGAA”, the target inhibition amounted to 83.8%. Still for that read-out and setting: the same measure for “sense GAGCGCUUCCCCGAUGAGA / antisense UCUCAUCGGGGAAGCGCUC”: 86.5%; for “sense AUUUGGCUACAAAAACAGC / antisense GCUGUUUUUGUAGCCAAAU”: 13.8%. Still for that read-out and setting: the same measure for “sense GGAUUUGGCUACAAAAACA / antisense UGUUUUUGUAGCCAAAUCC”: 83.5%; for “sense GAUGAGAACUUCAAACUGA / antisense UCAGUUUGAAGUUCUCAUC”: 89.7%.

As to “sense CUUCAAACUGAAGCACUAC / antisense GUAGUGCUUCAGUUUGAAG”, the target inhibition was determined as 73.1%.

For the substance “sense GGAUAAUUUUGUGGCCUUA / antisense UAAGGCCACAAAAUUAUCC”, the target inhibition came out at 83.9%. On the same count and under the same terms, as for “sense UACGGUGAGCGCUUCCCCG / antisense CGGGGAAGCGCUCACCGUA”, the figure is -9.9%. Still for that read-out and setting: as for “sense GGGCGGAGACUUCACCAGG / antisense CCUGGUGAAGUCUCCGCCC”, the figure is 89%; as for “sense GCGGAGACUUCACCAGGGG / antisense CCCCUGGUGAAGUCUCCGC”, 76.6%. On the same count and under the same terms, the same measure for “sense CCGAUGAGAACUUCAAACU / antisense AGUUUGAAGUUCUCAUCGG”: 85.1%; for “sense AAACAGCAAAUUCCAUCGU / antisense ACGAUGGAAUUUGCUGUUU”: 7.3%; for “sense ACAGGAGGAAAGAGCAUCU / antisense AGAUGCUCUUUCCUCCUGU”: 74.5%.

Consider “sense GAUCCAGGGCGGAGACUUC / antisense GAAGUCUCCGCCCUGGAUC”, for which the target inhibition worked out at 92.7%. On the same count and under the same terms, as for “sense GCACAGGAGGAAAGAGCAU / antisense AUGCUCUUUCCUCCUGUGC”, the figure is 90.8%.

A further data set has as its target firefly luciferase. Description: five studies, different assays. The settings on record: siRNA.
For the substance “sense UGACGGAAAAAGAGAUCGU / antisense ACGAUCUCUUUUUCCGUCA”, the target inhibition was found to be 88.8%. The same measure, in the same setting: the same measure for “sense UGUGUUUGUGGACGAAGUA / antisense UACUUCGUCCACAAACACA”: 90.8%; for “sense AGGAGUUGUGUUUGUGGAC / antisense GUCCACAAACACAACUCCU”: 87.5%; for “sense AAAGACGAUGACGGAAAAA / antisense UUUUUCCGUCAUCGUCUUU”: 73.9%.

Regarding “sense AACUUCCCGCCGCCGUUGU / antisense ACAACGGCGGCGGGAAGUU”, the target inhibition came to 18.4%. The same measure, in the same setting: as for “sense AGGUCUUACCGGAAAACUC / antisense GAGUUUUCCGGUAAGACCU”, the figure is 90.1%.

Regarding “sense GUGUUGGGCGCGUUAUUUA / antisense UAAAUAACGCGCCCAACAC”, the target inhibition came to 91.9%. With “sense CGAAGUACCGAAAGGUCUU / antisense AAGACCUUUCGGUACUUCG”, the target inhibition was 93.1%. Same read-out and setting: the same measure for “sense GGUAAAGUUGUUCCAUUUU / antisense AAAAUGGAACAACUUUACC”: 94.5%; for “sense AAGAAAAAUCAGAGAGAUC / antisense GAUCUCUCUGAUUUUUCUU”: 68.1%; for “sense UUUGGAGCACGGAAAGACG / antisense CGUCUUUCCGUGCUCCAAA”: -10.4%. The same measure, in the same setting: the same measure for “sense ACGCCAAAAACAUAAAGAA / antisense UUCUUUAUGUUUUUGGCGU”: 94.9%. Same read-out and setting: as for “sense UUCUGAUUACACCCGAGGG / antisense CCCUCGGGUGUAAUCAGAA”, the figure is 10.7%. Take “sense ACGAUGACGGAAAAAGAGA / antisense UCUCUUUUUCCGUCAUCGU”: the target inhibition came to 80.7%. In the case of “sense CCGGAAAACUCGACGCAAG / antisense CUUGCGUCGAGUUUUCCGG”, the target inhibition worked out at 94.9%. Take “sense UUGCGCGGAGGAGUUGUGU / antisense ACACAACUCCUCCGCGCAA”: the target inhibition came out at 24.9%. Same read-out and setting: as for “sense GGAUGGAUGGCUACAUUCU / antisense AGAAUGUAGCCAUCCAUCC”, the figure is 97.4%.

On to “sense AUUAUCAUGGAUUCUAAAA / antisense UUUUAGAAUCCAUGAUAAU”, for which the target inhibition was determined as 55.5%. Same read-out and setting: as for “sense AAGUAACAACCGCGAAAAA / antisense UUUUUCGCGGUUGUUACUU”, the figure is 76.6%; as for “sense AGACGAUGACGGAAAAAGA / antisense UCUUUUUCCGUCAUCGUCU”, 93.1%.

Consider “sense GUCUUACCGGAAAACUCGA / antisense UCGAGUUUUCCGGUAAGAC”, for which the target inhibition was 61%. On to “sense CCUCCCGGUUUUAAUGAAU / antisense AUUCAUUAAAACCGGGAGG”, for which the target inhibition amounted to 73.5%. The same measure, in the same setting: the same measure for “sense UGGAUUACGUCGCCAGUCA / antisense UGACUGGCGACGUAAUCCA”: 93.6%; for “sense AAUCAGAGAGAUCCUCAUA / antisense UAUGAGGAUCUCUCUGAUU”: 91.7%; for “sense GUUUUGGAGCACGGAAAGA / antisense UCUUUCCGUGCUCCAAAAC”: -27.8%. Still for that read-out and setting: as for “sense UAAAGAAAGGCCCGGCGCC / antisense GGCGCCGGGCCUUUCUUUA”, the figure is 5.9%.

As to “sense GGUGAACUUCCCGCCGCCG / antisense CGGCGGCGGGAAGUUCACC”, the target inhibition came to 14.5%. Turning to “sense UUACGUCGCCAGUCAAGUA / antisense UACUUGACUGGCGACGUAA”, the target inhibition is 92.9%.

For “sense GAUUACGUCGCCAGUCAAG / antisense CUUGACUGGCGACGUAAUC”, the target inhibition amounted to 96%. Same read-out and setting: the same measure for “sense GCACUCUGAUUGACAAAUA / antisense UAUUUGUCAAUCAGAGUGC”: 93%. Regarding “sense AACUCGACGCAAGAAAAAU / antisense AUUUUUCUUGCGUCGAGUU”, the target inhibition was 90.2%. On the same count and under the same terms, the same measure for “sense GCACGGAAAGACGAUGACG / antisense CGUCAUCGUCUUUCCGUGC”: 39.2%. Same read-out and setting: as for “sense CCCGCCGCCGUUGUUGUUU / antisense AAACAACAACGGCGGCGGG”, the figure is 42.3%; as for “sense UCCCGCCGCCGUUGUUGUU / antisense AACAACAACGGCGGCGGGA”, 43.8%. The same measure, in the same setting: as for “sense GGAAAACUCGACGCAAGAA / antisense UUCUUGCGUCGAGUUUUCC”, the figure is 92.7%; as for “sense CGCGAAAAAGUUGCGCGGA / antisense UCCGCGCAACUUUUUCGCG”, 32.1%. Regarding “sense CUUACCGGAAAACUCGACG / antisense CGUCGAGUUUUCCGGUAAG”, the target inhibition came out at 94.3%. Still for that read-out and setting: the same measure for “sense GCAAGAAAAAUCAGAGAGA / antisense UCUCUCUGAUUUUUCUUGC”: 95.1%; for “sense AAAAAGUUGCGCGGAGGAG / antisense CUCCUCCGCGCAACUUUUU”: 38.8%; for “sense GAAGUCUCUGAUUAAGUAC / antisense GUACUUAAUCAGAGACUUC”: 34.7%. Take “sense AUCCUCAUAAAGGCCAAGA / antisense UCUUGGCCUUUAUGAGGAU”: the target inhibition was -12.8%.

For the substance “sense UAUGCCGGUGUUGGGCGCG / antisense CGCGCCCAACACCGGCAUA”, the target inhibition was found to be 19.7%. Same read-out and setting: as for “sense AAAACUCGACGCAAGAAAA / antisense UUUUCUUGCGUCGAGUUUU”, the figure is 94.6%; as for “sense AAAGUUGCGCGGAGGAGUU / antisense AACUCCUCCGCGCAACUUU”, 95.5%. On the same count and under the same terms, the same measure for “sense GACGCCAAAAACAUAAAGA / antisense UCUUUAUGUUUUUGGCGUC”: 85.8%; for “sense AACAUAAAGAAAGGCCCGG / antisense CCGGGCCUUUCUUUAUGUU”: 7.6%; for “sense ACCGCGAAAAAGUUGCGCG / antisense CGCGCAACUUUUUCGCGGU”: 29.9%. Still for that read-out and setting: as for “sense AAAAAGAGAUCGUGGAUUA / antisense UAAUCCACGAUCUCUUUUU”, the figure is 91.2%; as for “sense UGGACGAAGUACCGAAAGG / antisense CCUUUCGGUACUUCGUCCA”, 70.3%.

In the case of “sense AGUUGCAGUUGCGCCCGCG / antisense CGCGGGCGCAACUGCAACU”, the target inhibition worked out at 37.3%. Same read-out and setting: as for “sense GUUGUUGUUUUGGAGCACG / antisense CGUGCUCCAAAACAACAAC”, the figure is 32.6%. On the same count and under the same terms, as for “sense GCCUGAAGUCUCUGAUUAA / antisense UUAAUCAGAGACUUCAGGC”, the figure is 95.6%; as for “sense GAUGACGGAAAAAGAGAUC / antisense GAUCUCUUUUUCCGUCAUC”, 47.6%; as for “sense CGUGGAUUACGUCGCCAGU / antisense ACUGGCGACGUAAUCCACG”, 87.1%. Still for that read-out and setting: as for “sense AAAACAUAAAGAAAGGCCC / antisense GGGCCUUUCUUUAUGUUUU”, the figure is 11.1%. With “sense CGAAAAAGUUGCGCGGAGG / antisense CCUCCGCGCAACUUUUUCG”, the target inhibition came out at 78.6%. Same read-out and setting: the same measure for “sense ACCGAAAGGUCUUACCGGA / antisense UCCGGUAAGACCUUUCGGU”: 94.7%.
